Toxic doses and inconclusive results are not listed.
System: BDF1 mice, B16 melanoma ip, median survival T/C
Test: NCI In Vivo Anticancer Drug Screen. Data for tumor model B16 Melanoma (intraperitoneal) in B6D2F1 (BDF1) mice
Details: endpoint: median survival time, higher = longer survival
Summary of the method: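 Mice with transplantable tumors; drug vs vehicle groups; endpoint survival or tumor size; value = T/C.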

[1] = dose: 100.0 mg/kg/injection, schedule: Q01DX009 (ip), vehicle: Klucel (hydroxypropylcellulose) (HPC)
[2] = dose: 200.0 mg/kg/injection, schedule: Q01DX009 (ip), vehicle: Klucel (hydroxypropylcellulose) (HPC)
[3] = dose: 400.0 mg/kg/injection, schedule: Q01DX009 (ip), vehicle: Klucel (hydroxypropylcellulose) (HPC)
[4] = dose: 25.0 mg/kg/injection, schedule: Q01DX009 (ip), vehicle: saline with Tween-80
[5] = dose: 50.0 mg/kg/injection, schedule: Q01DX009 (ip), vehicle: saline with Tween-80
[6] = dose: 100.0 mg/kg/injection, schedule: Q01DX009 (ip), vehicle: saline with Tween-80

SMILES: OCC1OC(O)C(O)C(O)C1O (stereo unspecified)
- T/C (dose: 500.0 mg/kg/injection, schedule: Q01DX009 (ip), vehicle: saline): 98 % of control
- T/C (dose: 1000.0 mg/kg/injection, schedule: Q01DX009 (ip), vehicle: saline): 93 % of control
- T/C (dose: 2000.0 mg/kg/injection, schedule: Q01DX009 (ip), vehicle: saline): 103 % of control
- T/C (dose: 4000.0 mg/kg/injection, schedule: Q01DX009 (ip), vehicle: saline): 97 % of control

SMILES: Cc1c2cnccc2c(C)c2c1c1ccccc1n2CC1CO1 (stereo unspecified)
- T/C (dose: 3.75 mg/kg/injection, schedule: Q01DX009 (ip), vehicle: Klucel (hydroxypropylcellulose) (HPC)): 117 % of control
- T/C (dose: 7.5 mg/kg/injection, schedule: Q01DX009 (ip), vehicle: Klucel (hydroxypropylcellulose) (HPC)): 114 % of control
- T/C (dose: 15.0 mg/kg/injection, schedule: Q01DX009 (ip), vehicle: Klucel (hydroxypropylcellulose) (HPC)): 121 % of control

SMILES: COc1cccc(NC(=O)Nc2cccc(Cl)c2)c1
- T/C [1]: 103 % of control
- T/C [2]: 96 % of control
- T/C [3]: 103 % of control

SMILES: C1=CC2(OCCO2)C2CC=CC3(OCCO3)C2C1 (stereo unspecified)
- T/C (dose: 50.0 mg/kg/injection, schedule: Q01DX009 (ip), vehicle: Klucel (hydroxypropylcellulose) (HPC)): 104 % of control
- T/C [1]: 97 % of control

SMILES: O=C(Nc1ccc([N+](=O)[O-])cc1)Nc1nccs1
- T/C (dose: 50.0 mg/kg/injection, schedule: Q01DX009 (ip), vehicle: distilled water + Tween-80): 152 % of control

SMILES: CO[C@H]1/C=C/O[C@@]2(C)Oc3c(C)c(O)c4c(O)c(c(/C=N/N5C(C)CN(Cc6ccccc6)CC5C)c(O)c4c3C2=O)NC(=O)/C(C)=C\C=C\[C@H](C)[C@H](O)[C@@H](C)[C@@H](O)[C@@H](C)[C@H](OC(C)=O)[C@@H]1C (stereo partly specified)
- T/C (dose: 8.0 mg/kg/injection, schedule: Q03HX008 (ip), vehicle: clinical formulation): 94 % of control
- T/C (dose: 8.0 mg/kg/injection, schedule: Q03HX024 (ip), vehicle: clinical formulation): 88 % of control
- T/C (dose: 16.0 mg/kg/injection, schedule: Q03HX008 (ip), vehicle: clinical formulation): 90 % of control
- T/C (dose: 25.0 mg/kg/injection, schedule: Q02DX Z (oral), vehicle: Klucel (hydroxypropylcellulose) (HPC)): 98 % of control
- T/C (dose: 32.0 mg/kg/injection, schedule: Q03HX024 (ip), vehicle: clinical formulation): 88 % of control
- T/C (dose: 50.0 mg/kg/injection, schedule: Q01DX009 (ip), vehicle: saline): 123 % of control
- T/C (dose: 50.0 mg/kg/injection, schedule: Q02DX Z (oral), vehicle: Klucel (hydroxypropylcellulose) (HPC)): 116 % of control
- T/C (dose: 64.0 mg/kg/injection, schedule: Q04DX005 (ip), vehicle: clinical formulation): 93 % of control
- T/C (dose: 64.0 mg/kg/injection, schedule: Q08DX003 (ip), vehicle: clinical formulation): 91 % of control
- T/C (dose: 100.0 mg/kg/injection, schedule: Q02DX Z (oral), vehicle: Klucel (hydroxypropylcellulose) (HPC)): 103 % of control
- T/C (dose: 200.0 mg/kg/injection, schedule: Q01DX009 (ip), vehicle: saline): 110 % of control
- T/C (dose: 200.0 mg/kg/injection, schedule: Q02DX Z (oral), vehicle: Klucel (hydroxypropylcellulose) (HPC)): 114 % of control
- T/C (dose: 256.0 mg/kg/injection, schedule: Q01DX001 (ip), vehicle: clinical formulation): 86 % of control
- T/C (dose: 400.0 mg/kg/injection, schedule: Q02DX Z (oral), vehicle: Klucel (hydroxypropylcellulose) (HPC)): 88 % of control
- T/C (dose: 800.0 mg/kg/injection, schedule: Q02DX Z (oral), vehicle: Klucel (hydroxypropylcellulose) (HPC)): 113 % of control
- T/C (dose: 1600.0 mg/kg/injection, schedule: Q02DX Z (oral), vehicle: Klucel (hydroxypropylcellulose) (HPC)): 97 % of control

SMILES: Cc1cccc(C)c1N1C(=O)CCC1=O
- T/C [1]: 101 % of control
- T/C [2]: 95 % of control
- T/C [3]: 102 % of control

SMILES: Cc1cc(/C=C/c2cc[n+](C)c3ccccc23)c(O)c2ncccc12
- T/C (dose: 3.0 mg/kg/injection, schedule: Q01DX009 (ip), vehicle: saline sonified): 104 % of control
- T/C (dose: 6.0 mg/kg/injection, schedule: Q01DX009 (ip), vehicle: saline sonified): 97 % of control
- T/C (dose: 12.0 mg/kg/injection, schedule: Q01DX009 (ip), vehicle: saline sonified): 97 % of control
- T/C (dose: 24.0 mg/kg/injection, schedule: Q01DX009 (ip), vehicle: saline sonified): 100 % of control
- T/C (dose: 48.0 mg/kg/injection, schedule: Q01DX009 (ip), vehicle: saline sonified): 104 % of control

SMILES: CCOC(=O)N1C(=O)c2ccccc2C1=O
- T/C [4]: 94 % of control
- T/C [5]: 94 % of control
- T/C [6]: 86 % of control

SMILES: CCC(C)NC(=O)Nc1cccc(Cl)c1C (stereo unspecified)
- T/C [6]: 102 % of control
- T/C (dose: 200.0 mg/kg/injection, schedule: Q01DX009 (ip), vehicle: saline with Tween-80): 96 % of control

SMILES: C/C(=C\c1ccccc1)[N+](=O)[O-]
- T/C [4]: 111 % of control
- T/C (dose: 25.0 mg/kg/injection, schedule: Q04DX003 (ip), vehicle: saline with Tween-80): 110 % of control
- T/C [5]: 105 % of control
- T/C (dose: 50.0 mg/kg/injection, schedule: Q04DX003 (ip), vehicle: saline with Tween-80): 110 % of control
